The results in this text go back to ChEMBL document CHEMBL1142090, “Substrate competition studies using whole-cell accumulation assays with the major tripartite multidrug efflux pumps of Escherichia coli” (2007).

For orientation: MIC means the lowest concentration that inhibits growth of the organism. Low readings indicate inhibition by little substance, high ones a need for much substance.

Experiment [1] relates to Escherichia coli. Nature of the experiment: Antibacterial activity against Escherichia coli AG102MB after 24 hrs. It counts as functional.
The test system of experiment [2] is Escherichia coli. Nature of the experiment: Antibacterial activity against Escherichia coli HNCE4 after 24 hrs. It counts as functional. As to conditions: HNCE4, 24 h.
For experiment [3], the system named is Escherichia coli. The experiment in a line: Antibacterial activity against Escherichia coli AG102 with marR1 mutation after 24 hrs. The experiment is classed as functional. The note with it: AG102, 24 h.
Experiment [4] deals with Escherichia coli. Nature of the experiment: Increase in [3H]testosterone uptake in Escherichia coli AG102 at 100 uM. It counts as functional, organism-based.
For experiment [5], the system named is Escherichia coli. The experiment in a line: Increase in [3H]testosterone uptake in Escherichia coli HNCE4 at 100 uM. The experiment is classed as functional, organism-based.
The test system of experiment [6] is Escherichia coli. The experiment in a line: Increase in [3H]testosterone uptake in Escherichia coli AG102MB at 100 uM. The experiment is classed as functional, organism-based.
The test system of experiment [7] is Escherichia coli. Nature of the experiment: Effect on modulation in uptake of [3H]progesterone in Escherichia coli AG102MB. It counts as functional, organism-based.
For experiment [8], the system named is Escherichia coli. Nature of the experiment: Effect on modulation in uptake of [3H]progesterone in Escherichia coli HNCE4. It counts as functional, organism-based.
The test system of experiment [9] is Escherichia coli. The experiment in a line: Effect on modulation in uptake of [3H]testosterone in Escherichia coli AG102 with marR1 mutation. It counts as functional, organism-based.
The subject of experiment [10] is Escherichia coli. The experiment in a line: Effect on modulation in uptake of [3H]hydrocortisone in Escherichia coli AG102 with marR1 mutation. It counts as functional, organism-based.

SMILES strings stand for the structures. Active and inactive are the calls of the source. The calls are words filed in the database; no cut-off is given here. Bounds are passed on as bounds.

As to `CC1(C)S[C@@H]2[C@H](NC(=O)[C@H](N)c3ccccc3)C(=O)N2[C@H]1C(=O)O` [AMPICILLIN], the figures for the MIC with Escherichia coli [1], in the experiment on Escherichia coli [2] and in the experiment on Escherichia coli [3] were 16 µg/mL, 16 µg/mL and 32 µg/mL, respectively.
Consider `N#CC(C#N)=NNc1cccc(Cl)c1` [CARBONYL CYANIDE M-CHLOROPHENYLHYDRAZONE], for which the figures for the MIC in the experiment on Escherichia coli [1], with Escherichia coli [2] and against Escherichia coli [3] were 32 µM, 16 µM and 128 µM, respectively. In addition, the outcome in the experiment with Escherichia coli [4], with Escherichia coli [5] and in the experiment with Escherichia coli [6] was Active.
Take `O=C(N[C@H](CO)[C@H](O)c1ccc([N+](=O)[O-])cc1)C(Cl)Cl` [CHLORAMPHENICOL]: the MIC was 2 µg/mL against Escherichia coli [1], above 128 µg/mL in the experiment with Escherichia coli [2] and 8 µg/mL against Escherichia coli [3].
In the case of `C[C@H](CCC(=O)O)[C@H]1CC[C@H]2[C@@H]3[C@H](O)C[C@@H]4C[C@H](O)CC[C@]4(C)[C@H]3C[C@H](O)[C@]12C` [CHOLIC ACID], the MIC against Escherichia coli [1] is 4000 µg/mL; with Escherichia coli [2], 2000 µg/mL; against Escherichia coli [3], 16000 µg/mL.
Consider `O=C(O)c1cn(C2CC2)c2cc(N3CCNCC3)c(F)cc2c1=O` [CIPROFLOXACIN], for which the minimum inhibitory concentration (MIC) against Escherichia coli [1] is 0.0625 µg/mL; against Escherichia coli [2], 0.0625 µg/mL; in the experiment with Escherichia coli [3], above 0.25 µg/mL. Moreover, the outcome in the experiment on Escherichia coli [7] and with Escherichia coli [8] was Active.
For `CC[C@H]1OC(=O)[C@H](C)[C@@H](O[C@H]2C[C@@](C)(OC)[C@@H](O)[C@H](C)O2)[C@H](C)[C@@H](O[C@@H]2O[C@H](C)C[C@H](N(C)C)[C@H]2O)[C@](C)(O)C[C@@H](C)[C@@H]2N[C@@H](COCCOC)O[C@H]([C@H]2C)[C@]1(C)O` [DIRITHROMYCIN], the MIC against Escherichia coli [1] turned out to be 16 µg/mL; in the experiment with Escherichia coli [2] it was 16 µg/mL; against Escherichia coli [3], 256 µg/mL.
As for `CC[C@H]1OC(=O)[C@H](C)[C@@H](O[C@H]2C[C@@](C)(OC)[C@@H](O)[C@H](C)O2)[C@H](C)[C@@H](O[C@@H]2O[C@H](C)C[C@H](N(C)C)[C@H]2O)[C@](C)(O)C[C@@H](C)C(=O)[C@H](C)[C@@H](O)[C@]1(C)O` [ERYTHROMYCIN], the MIC in the experiment on Escherichia coli [1] was determined as 4 µg/mL; against Escherichia coli [2] it was 8 µg/mL; with Escherichia coli [3], 128 µg/mL. Also, the outcome with Escherichia coli [7] and in the experiment on Escherichia coli [8] was Active.
On to `CC(=O)O[C@H]1C[C@@]2(C)[C@@H](C[C@@H](O)[C@H]3[C@@]4(C)CC[C@@H](O)[C@@H](C)[C@@H]4CC[C@@]32C)/C1=C(\CCC=C(C)C)C(=O)O` [FUSIDIC ACID], for which the MIC in the experiment on Escherichia coli [1] was 16 µg/mL; in the experiment on Escherichia coli [2], 128 µg/mL; with Escherichia coli [3], above 512 µg/mL.
For the compound `CN(C)c1ccc(C(=C2C=CC(=[N+](C)C)C=C2)c2ccc(N(C)C)cc2)cc1.[Cl-]` [GENTIAN VIOLET], the MIC in the experiment on Escherichia coli [1] stood at 0.5 µg/mL; against Escherichia coli [2], 8 µg/mL; against Escherichia coli [3], 32 µg/mL.
`CC[n+]1c(-c2ccccc2)c2cc(N)ccc2c2ccc(N)cc21.[Br-]` [HOMIDIUM BROMIDE]: the MIC came out at 4 µg/mL in the experiment on Escherichia coli [1], 32 µg/mL against Escherichia coli [2] and 256 µg/mL against Escherichia coli [3].
As to `CO[C@@H]1[C@@H](O[C@@H]2O[C@H](C)[C@@H](O[C@H]3C[C@@](C)(O)[C@@H](OC(=O)CC(C)C)[C@H](C)O3)[C@H](N(C)C)[C@H]2O)[C@@H](CC=O)C[C@@H](C)[C@@H](O)/C=C/C=C/C[C@@H](C)OC(=O)C[C@H]1OC(C)=O` [JOSAMYCIN], the MIC in the experiment on Escherichia coli [1] is 32 µg/mL; with Escherichia coli [2] it was 4 µg/mL; against Escherichia coli [3], above 512 µg/mL.
Consider `NC[C@H]1O[C@H](O[C@H]2[C@H](O)[C@@H](O[C@H]3O[C@H](CO)[C@@H](O)[C@H](N)[C@H]3O)[C@H](N)C[C@@H]2N)[C@H](O)[C@@H](O)[C@@H]1O` [KANAMYCIN], for which the MIC is above 512 µg/mL with Escherichia coli [1], above 512 µg/mL against Escherichia coli [2] and 8 µg/mL against Escherichia coli [3].
For the compound `CO[C@@H]1[C@@H](OC(N)=O)[C@@H](O)[C@H](Oc2ccc3c(O)c(NC(=O)c4ccc(O)c(CC=C(C)C)c4)c(=O)oc3c2C)OC1(C)C` [NOVOBIOCIN], the minimal inhibitory concentration (MIC) came out at 4 µg/mL against Escherichia coli [1], 4 µg/mL in the experiment on Escherichia coli [2] and 512 µg/mL in the experiment with Escherichia coli [3].
For the compound `CO[C@H]1C[C@H](O[C@H]2[C@H](C)[C@@H](O[C@@H]3O[C@H](C)C[C@H](N(C)C)[C@H]3O)[C@@H](C)C[C@@]3(CO3)C(=O)[C@H](C)[C@@H](O)[C@@H](C)[C@@H](C)OC(=O)[C@@H]2C)O[C@@H](C)[C@@H]1O` [OLEANDOMYCIN], the MIC was 128 µg/mL in the experiment with Escherichia coli [1], 256 µg/mL against Escherichia coli [2] and above 512 µg/mL in the experiment with Escherichia coli [3].
The corresponding values for `COC(=O)[C@H]1[C@H]2C[C@@H]3c4[nH]c5cc(OC)ccc5c4CCN3C[C@H]2C[C@@H](OC(=O)c2cc(OC)c(OC)c(OC)c2)[C@@H]1OC` [RESERPINE] are 128 µg/mL, 128 µg/mL and 256 µg/mL.
Take `CC[C@H]1OC(=O)[C@H](C)[C@@H](O[C@H]2C[C@@](C)(OC)[C@@H](O)[C@H](C)O2)[C@H](C)[C@@H](O[C@@H]2O[C@H](C)C[C@H](N(C)C)[C@H]2O)[C@](C)(O)C[C@@H](C)/C(=N\OCOCCOC)[C@H](C)[C@@H](O)[C@]1(C)O` [ROXITHROMYCIN]: the minimal inhibitory concentration (MIC) with Escherichia coli [1] worked out at 64 µg/mL; in the experiment with Escherichia coli [2], 128 µg/mL; with Escherichia coli [3] it was 512 µg/mL.
For `CCCCCCCCCCCCOS(=O)(=O)[O-].[Na+]` [SODIUM LAURYL SULFATE], the minimum inhibitory concentration (MIC) with Escherichia coli [1] came out at 62.5 µg/mL; in the experiment on Escherichia coli [2], 125 µg/mL; in the experiment with Escherichia coli [3], 1000 µg/mL. Further, the outcome with Escherichia coli [9] and in the experiment with Escherichia coli [10] was Active.
Turning to `CN(C)[C@@H]1C(O)=C(C(N)=O)C(=O)[C@@]2(O)C(O)=C3C(=O)c4c(O)cccc4[C@@](C)(O)[C@H]3C[C@@H]12` [TETRACYCLINE], the MIC in the experiment on Escherichia coli [1] is 2 µg/mL; against Escherichia coli [2] it was 2 µg/mL; in the experiment on Escherichia coli [3], 8 µg/mL.
Take `CC[C@H]1OC(=O)C[C@@H](O)[C@H](C)[C@@H](O[C@@H]2O[C@H](C)[C@@H](O[C@H]3C[C@@](C)(O)[C@@H](O)[C@H](C)O3)[C@H](N(C)C)[C@H]2O)[C@@H](CC=O)C[C@@H](C)C(=O)/C=C/C(C)=C/[C@@H]1CO[C@@H]1O[C@H](C)[C@@H](O)[C@@H](OC)[C@H]1OC` [TYLOSIN]: the figures for the MIC against Escherichia coli [1], in the experiment with Escherichia coli [2] and in the experiment on Escherichia coli [3] were 128 µg/mL, 64 µg/mL and above 512 µg/mL, respectively.
